Earlier results in patent US20120282187A1 (BOEHRINGER INGELHEIM INTERNATIONAL GMBH, priority 2008, published 2012).

System: patients with non-valvular atrial fibrillation
Conditions: in vivo; cited from earlier work

Question: With `CCOC(=O)CN[C@@H](C(=O)N1CC[C@H]1C(=O)NCc1ccc(/C(N)=N\O)cc1)C1CCCCC1` [ximelagatran] as the molecule, how does the hepatotoxicity read?
Answer: hepatotoxic
